Here are results for one substance from patent US20070111258A1, “Compositions and methods for modulating the acute phase response” (priority 2005, published 2007).

Assay [1] concerns CREBH and ATF6 heterodimers. The assay is described as follows: IP-Western blot of CREBH and ATF6 interaction in 293T cells. Type of assay: cell-based, human. As to conditions: 293T cells expressing flag-tagged CREBH; 8 hours after Tm treatment. The protocol:
FIG. 11 depicts the synergistic interaction of CREBH with ATF6 to activate transcription of the major APR genes. (A) Luciferase reporter analysis of trans-activation effects of CREBH on promoters of the murine SAP gene and the human CRP gene in H2.35 cells. H2.35 cells in a 35 mm collagen-coated plate were co-transfected with a control vector or a CREBH expression vector (0.25 μg), the luciferase reporter (0.6 μg) and pcDNA3-LacZ (0.25 μg), and were then cultured in the absence or presence of Tm (5 μg/ml) for 10 hours. (B) CREBH-DN efficiently suppresses CREBH trans-activation on the murine SAP and the human CRP promoters. […] (C) Interaction between ATF6 and CREBH was determined by IP-Western blot analysis. […] Expression levels of CREBH in the transfected cells were determined by Western blot analysis of total cell lysates using the anti-flag antibody (lower panel). […]
For analysis of expression and cleavage of CREBH protein, total cell lysates were prepared from H2.35 cells or COS7 cells using Nonidet P-40 lysis buffer (1% NP-40, 50 mM Tris-HCl at pH 7.5, 150 mM NaCl, 0.05% SDS) supplemented with protease inhibitors (Complete Mini from Roche Applied Science), 0.1 mM sodium vanadate, and 1 mM sodium fluoride. […] The total cell lysate, membrane and nuclear fractions were subjected to SDS-PAGE and then analyzed by Western blot using anti-flag monoclonal antibody or other antibodies. […]
(In general: A western blot detects proteins with antibodies after separation by electrophoresis.)

For assay [2], the system named is SAP. The assay is described as follows: Serum SAP in CREBH knockdown and control RNAi mice (ELISA). Format: in vivo, mouse. As to conditions: Tm 2 μg/gram body weight i.p., 24 hours. The protocol: (A) Identification of CREBH knockdown mice by Northern blot analysis. Transgenic mice with empty vector lentivirus expressing GFP were used as controls. Total RNAs (15 μg/lane) were isolated from the livers of the CREBH RNAi or the control mice, and subjected to Northern blot analysis. A 260 bp GFP cDNA fragment and a 210 bp mouse CREBH cDNA fragment were used as probes for detecting levels of GFP mRNA and CREBH mRNA, respectively. Levels of ββ-actin mRNA were determined for control of sample loading. (B) Morphology of CREBH knockdown embryos. The embryos were collected at gestation stage E14.5. The paraffin-embedded embryo sections were stained with hematoxylin and eosin. Magnification: 20 X. (C) Northern blot analysis of levels of CREBH, CRP and SAP mRNA in the livers of the CREBH knockdown or the control mice. Levels of β-actin mRNA were determined for sample loading controls. (D-E) Serum levels of SAP and CRP in the CREBH knockdown and the siRNA control mice in response to IL6 plus IL1β LPS or Tm. CREBH knockdown and RNAi control mice at 3-months of age were challenged with recombinant mouse IL6 (25 ng/gram body weight) plus recombinant mouse IL1β (25 ng/gram body weight), LPS (3 μg/gram body weight) or Tm (2 mg/kg body weight). Serum levels of SAP and CRP in the mice were determined before injection and at 24 hours after IL6 plus IL1β, LPS or Tm injection. […]
In general terms: In an ELISA, binding on a coated surface is turned into a signal by an enzyme label.

As to tunicamycin [Tm], the “interaction between CREBH and ATF6” value in assay [1] is on record as “significantly increased”. Besides, the “increase of serum SAP” value in assay [2] (CREBH knockdown mice) is on record as “approximately 2 fold”. The “increase of serum levels of SAP” value in assay [2] (control mice) is listed as “approximately 12 fold”.
